Data reported in paper PMC9658316, “Discovery of Mitochondrial Complex I Inhibitors as Anticancer and Radiosensitizer Drugs Based on Compensatory Stimulation of Lactate Release” (Cancers, 2022).

Columns and labels:
[1] = tested on: intact CT26 cancer cells; assay: Seahorse basal OCR and ECAR in intact (non-permeabilized) CT26 cancer cells; assay type: cell-based, mouse; settings: for restoration of OCR / OXPHOS activity in cells exposed to aa compound: intact CT26 cells exposed to aa
Description: (§1) L-lactate concentration was measured in a semi-automated manner using CMA Microdialysis AB enzymatic assay and a CMA 600 analyzer (Aurora Borealis, Schoonebeek, The Netherlands) as previously described. Briefly, cells (2 × 10^5 cells per well; 3 wells/condition) were seeded in 12-well plates with 2 mL of their routine culture medium. After 24 h, medium was replaced by 500 µL of DMEM containing 10 mmol/L D-glucose and supplemented with 2 mmol/L L-glutamine and 10% dialyzed FBS (Sigma-Aldrich), in the presence of the compounds or vehicle (DMSO). The initial concentration of L-lactate in the experimental medium was also assessed by including control wells containing only cell culture medium (no cells) on each plate. After incubation for 24 h, extracellular media were collected and deproteinized by centrifugation (15 min, 10,000 rpm, 4 °C) in 10 kDa cut-off filter tubes (VWR, Avantor, Leuven, Belgium). Differences in L-lactate concentrations between control and treated cells were calculated and normalized by the protein content in each well and expressed in µmol/h/mg protein. Oxygen-consumption rate (OCR) was measured using the Seahorse XF96 plate reader as previously reported. Briefly, cells (2 × 10^4 cells per well) were first permeabilized with 1 nM Seahorse XF Plasma Membrane Permeabilizer (#102504-100; Agilent, Machelen, Belgium) and respiration was stimulated by adding 10 mM pyruvate, 5 mM malate, and 2 mM ADP. After baseline OCR determination, compounds were added (to inhibit complex I) followed by 10 mM succinate to fuel complex II and rescue the electron transport chain. In some experiments, the effects of selected hits on basal OCR were evaluated in intact cells (including in the presence of MCT1/2 inhibitor AR-C155858 [29] or methylpyruvate). OCR data were normalized according to protein content in each well.
Since other lactate transporters could be involved, we also used methylpyruvate which can bypass the need for a mitochondrial carrier and mimic the result of lactate oxidation by a mitochondrial LDH or ensure the delivery of pyruvate into the mitochondria matrix. […] In the same experiments carried out on non-permeabilized cancer cells, the extent of basal OCR inhibition in response to 10 µM aa was similar to that observed with 100 nM IACS-010759 (−52 ± 5% and −45 ± 6%, respectively) and mirrored by an increase in extracellular acidification rate (ECAR) (+36 ± 11% and +29 ± 9%, respectively).

[2] = target: mitochondrial complex I (Mus musculus, UniProt P03888+Q91WD5+Q9DC70); assay: Seahorse OCR in permeabilized CT26 cancer cells, mitochondrial complex I inhibition (Assay #2); assay type: cell-based; settings: for IC50: pyruvate/malate, tested at 1 and 10 µM, read-out: OCR inhib. (IC50); for significant inhibition of complex I: up to 10 µM
Description: as §1
(A–D). Graphs depict changes in O2 consumption rate (OCR) measured with the Seahorse technology on permeabilized CT26 cancer cells upon successive addition of pyruvate/malate, the indicated inhibitor and succinate. […] (E,F).

[3] = tested on: colorectal CT26 cancer cells; assay: Compound-induced L-lactate release (Assay #1), CT26; assay type: cell-based, mouse; settings: 10 µM; for [LAC] increase: 24 h exposure, L-lactate secretion above basal release; for L-lactate release compared with reference compound aa: 24 h
Description: as §1
Figure 3 Compound-induced L-lactate release (Assay #1). Culture medium was collected after 24 h exposure to the indicated compounds (10 µM) and the amount of extracellular L-lactate release was determined in a semi-automated manner; dose-dependent effects of complex I inhibitor IACS are shown on the right (shaded bars). Bar graph depicts the extent of L-lactate secretion above the basal release as determined in the absence of any compound (n = 3, ** p < 0.01 for increased L-lactate release vs. reference compound aa).

[4] = tested on: human cervix Siha cancer cells; assay: Growth inhibitory effects on human cancer cells (Presto Blue), SiHa vs MDA-MB-231; assay type: cell-based; settings: 1 µM
From the text: (§2) Mouse colorectal CT26 and breast 4T1 cancer cells as well as human cervix cancer SiHa and breast MDA-MD-231 cancer cells were acquired from ATCC where they are regularly authenticated by short tandem repeat profiling. They were stored according to the supplier’s instructions and used within 6 months after resuscitation of frozen aliquots. Cancer cells were maintained in DMEM (Life Technologies, ThermoFischer scientific, Merebelke, Belgium) supplemented with 10% heat-inactivated FBS. All cell lines were tested for mycoplasma contamination with the MycoAlert™ Mycoplasma Detection kit (#LT07-318; Lonza, Verviers, Belgium) before being used. Cell integrity was determined by the Trypan Blue exclusion method (using Bürker chambers) while cell growth was assessed by using the Presto Blue reagent (Life Technologies) according to manufacturer’s instructions.
Suppl. Figure S3. Growth inhibitory effects of hit compounds on human cancer cells. MDA-M B-231 (A) and Siha (B) cancer cells were exposed to 100 nM IACS or 1 µM aa, ag, aj and au compounds; data represent the reduced extent (expressed as %) of cell viability (determined with Presto Blue) when compared with vehicle conditions (n=3).
(also on this page, place not known: 60Growth inhibitory effects (%) MDA-MB-231 aa au 60Growth inhibitory effects (%))

[5] = tested on: CT26 colon cancer cells; assay: Growth inhibitory effects on cultured CT26 cells (Presto Blue); assay type: cell-based, mouse; settings: CT26 monolayers, 1 µM, 72 h
From the text: as §2
(§3) Figure 4 Mitochondrial complex I activity inhibition (Assay #2). (A–D). Graphs depict changes in O2 consumption rate (OCR) measured with the Seahorse technology on permeabilized CT26 cancer cells upon successive addition of pyruvate/malate, the indicated inhibitor and succinate. OXPHOS I inhibitor IACS was used as a control in the experiments testing reference compound aa (A), and compound aa (10µM) was used as reference for testing au, ah and at derivatives (B–D) (n = 6 per compound). (E,F). Growth inhibitory effects of cultured CT26 (E) and 4T1 […] cancer cells exposed to 100 nM IACS or 1 µM aa, ag, aj and au compounds for 72 h; data represent the reduced extent (expressed as %) of cell viability (determined with Presto Blue) when compared with vehicle conditions (n = 3).

[6] = tested on: 3D tumor CT26 spheroids; assay: Inhibition of 3D tumor spheroid growth (Assay #3); assay type: cell-based, mouse; settings: CT26 spheroids, day 10
Description: Spheroids were prepared by seeding 1500 cells/well in Ultra-Low Attachment 96-well plate (Corning, Merck, Hoeilaart, Belgium) in DMEM supplemented with 10% heat-inactivated FBS. Inhibitors were added on day 4 (mean diameter of spheroids: 300 µm) and renewed every 3 days. Spheroid growth was monitored using live-cell phase contrast microscope (Axio Observer, Zeiss, Zaventem, Belgium); spheroid area, density and morphology were measured using ImageJ software. Confocal fluorescence microscopy (LSM510, Zeiss, Zaventem, Belgium) was used for detecting pimonidazole immunostaining as previously reported. Spheroids from a same experiment were imaged with the same gain and exposure settings. In some experiments, OXPHOSi treatment was combined with irradiation using a ^137Cs γ-irradiator (IBL-637; CIS-BioInternational, Saclay, France) as previously described.
Figure 5 Inhibition of 3D tumor spheroid growth (Assay #3). […] Drug exposure without (A) or with irradiation (B) was associated with a significant reduction in spheroid sizes vs. untreated spheroids (not shown).

[7] = tested on: breast 4T1 cancer cells; assay: Growth inhibitory effects on cultured 4T1 cells (Presto Blue); assay type: cell-based, mouse; settings: 4T1 monolayers, 1 µM, 72 h, compared with CT26
From the text: as §2, §3

| SMILES | [LAC] increase [3] | IC50 [2] | further results |
| --- | --- | --- | --- |
| Cc1n[nH]c(C)c1Cc1sc2c(c1C(=O)N1C[C@H](O)CO1)c(=O)n(C)c(=O)n2CC(C)C [AR-C155858] | – | – | restoration of OCR / OXPHOS activity in cells exposed to aa compound [1]: failed to restore OCR |
| Cc1nc(-c2nc(-c3ccc(OC(F)(F)F)cc3)no2)nn1Cc1cccc(N2CCC(S(C)(=O)=O)CC2)c1 [IACS-010759, reference compound] | – | – | concentration giving the same extent of maximal OCR inhibition [2]: 100 nM; increase in extracellular acidification rate (ECAR) ([1]; non-permeabilized CT26 cells, 100 nM): +29 ± 9% |
| COC(=O)C(C)=O [Methylpyruvate, methylpyruvate] | – | – | restoration of OCR / OXPHOS activity in cells exposed to aa compound [1]: failed to restore OXPHOS activity |
| NC(=O)c1nnn(Cc2cc(Cl)c(C(=O)c3ccccc3)c(Cl)c2)c1N [ab] | ~2 µmol/h/mg | ~10 µM | – |
| Cc1ccc(C(=O)c2c(Cl)cc(Cn3nnc(C(N)=O)c3N)cc2Cl)cc1 [ac] | ~2 µmol/h/mg | ~10 µM | – |
| Cc1cccc(C(=O)c2c(Cl)cc(Cn3nnc(C(N)=O)c3N)cc2Cl)c1 [ad] | ~2 µmol/h/mg | ~10 µM | – |
| COc1ccc(C(=O)c2c(Cl)cc(Cn3nnc(C(N)=O)c3N)cc2Cl)cc1 [ae] | ~2 µmol/h/mg | ~10 µM | – |
| NC(=O)c1nnn(Cc2cc(Cl)c(C(=O)c3ccc(OC(F)(F)F)cc3)c(Cl)c2)c1N [af] | ~2 µmol/h/mg | ~10 µM | – |
| NC(=O)c1nnn(Cc2cc(Cl)c(C(=O)c3ccc(C(F)(F)F)cc3)c(Cl)c2)c1N [ag] | ~4 µmol/h/mg | – | L-lactate release compared with reference compound aa [3]: more potent inducers of L-lactate release; antiproliferative effects in Siha compared with MDA-MB-231 cells [4]: Larger antiproliferative effects; cytotoxic / growth inhibitory effects [5]: very limited effects; spheroid growth inhibition compared with reference compound aa [6]: inhibited spheroid growth to the same extent as compound aa; growth inhibitory activity [7]: more significant growth inhibitory activity |
| NC(=O)c1nnn(Cc2cc(Cl)c(C(=O)c3ccc4ccccc4c3)c(Cl)c2)c1N [ah] | ~2 µmol/h/mg | ~10 µM | pattern of OCR inhibition activity relative to aa ([2]; 1 and 10 µM): hypoactive |
| NC(=O)c1nnn(Cc2cc(Cl)c(CN3CCOCC3)c(Cl)c2)c1N [ai] | ~2 µmol/h/mg | > 10 µM | significant inhibition of complex I [2]: did not show significant inhibition of complex I |
| C=CCNC(=O)c1nnn(Cc2cc(Cl)c(C(=O)c3ccc(C(F)(F)F)cc3)c(Cl)c2)c1N [ak] | ~0 µmol/h/mg | > 10 µM | – |
| NC(=O)c1nnn(Cc2cc(F)c(C(=O)c3ccc(Cl)cc3)c(F)c2)c1N [an] | ~4 µmol/h/mg | ~10 µM | L-lactate release compared with reference compound aa [3]: more potent inducers of L-lactate release; spheroid growth inhibition compared with reference compound aa [6]: inhibited spheroid growth to the same extent as compound aa |
| CC(=O)c1c(Cl)cc(Cn2nnc(C(N)=O)c2N)cc1Cl [ao] | ~2 µmol/h/mg | > 10 µM | significant inhibition of complex I [2]: did not show significant inhibition of complex I |
| Cc1cc(C)cc(Cn2nnc(C(N)=O)c2N)c1 [ap] | ~0 µmol/h/mg | > 10 µM | – |
| NC(=O)c1nnn(Cc2cc(Cl)cc(Cl)c2)c1N [aq] | ~0 µmol/h/mg | > 10 µM | – |
| O=C(O)c1cn(Cc2cc(Cl)c(C(=O)c3ccc(Cl)cc3)c(Cl)c2)nn1 [ar] | ~0 µmol/h/mg | > 10 µM | – |
| NC(=O)c1cn(Cc2cc(Cl)c(C(=O)c3ccc(Cl)cc3)c(Cl)c2)nn1 [as] | ~2 µmol/h/mg | > 10 µM | significant inhibition of complex I [2]: did not show significant inhibition of complex I |
| O=C(c1ccc(Cl)cc1)c1c(Cl)cc(Cn2cc(CO)nn2)cc1Cl [av] | ~0 µmol/h/mg | > 10 µM | – |
| NC(=O)c1cn(Cc2cc(F)c(C(=O)c3ccc(Cl)cc3)c(F)c2)nn1 [aw] | ~0 µmol/h/mg | > 10 µM | – |
| Nc1c(C(=O)O)nnn1Cc1ccc(NC(=O)c2ccc(Cl)cc2)cc1 [ba] | ~0 µmol/h/mg | > 10 µM | – |
| Nc1c(C(=O)O)nnn1Cc1cccc(NC(=O)c2ccc(OC(F)(F)F)cc2)c1 [bb] | ~0 µmol/h/mg | > 10 µM | – |
| CC(C)(C)OC(=O)N1CCC(Nc2cccc(Cn3nnc(C(=O)O)c3N)c2)CC1 [bc] | ~0 µmol/h/mg | > 10 µM | – |
| Nc1c(C(=O)O)nnn1Cc1cccc(N2CCOCC2)c1 [bd] | ~0 µmol/h/mg | > 10 µM | – |
| Nc1c(C(=O)O)nnn1Cc1ccccc1NC(=O)c1ccc(OC(F)(F)F)cc1 [be] | ~0 µmol/h/mg | > 10 µM | – |
| Nc1c(C(=O)O)nnn1Cc1ccccc1N1CCSCC1 [bf] | ~0 µmol/h/mg | > 10 µM | – |
| NC(=O)c1nnn(Cc2cc(Cl)c(Cc3ccc(C(F)(F)F)cc3)c(Cl)c2)c1N [compound al] | ~0 µmol/h/mg | > 10 µM | – |
